Our source for the Ki, IC50 and Antitumor activity values is patent US4446315A, “Adenosine 5'-triphosphate-4-carboxamide-ribofuranosylthiazole” (The United States of America as represented by the …, priority 1982, dated 1984).

“Also recorded” adds a separate entry of the source. Read-outs that look alike come from different tables or passages of the source.

The target in assay [1] is bacterial IMP dehydrogenase. Kind of assay: Inhibition of bacterial IMP dehydrogenase. The settings on record: chemically synthesized TAD; read-out: Ki against bacterial IMP dehydrogenase. Format: biochemical.
The subject of assay [2] is P388 leukemic cells. Kind of assay: Cytotoxicity against P388 leukemic cells in culture. It is filed as cell-based. The settings on record: Mus musculus, read-out: Cytotoxicity Against P388 Leukemic Cells in Culture IC50 (median inhibitory concentration).
The nature of assay [3]: Antitumor activity of the metabolite administered as such. The settings on record: compared with progenitor TR; initial experiments.

For the molecule `NC(=O)c1csc([C@@H]2O[C@H](COP(=O)(O)OP(=O)(O)OC[C@H]3O[C@@H](n4cnc5c(N)ncnc54)[C@H](O)[C@@H]3O)[C@@H](O)[C@H]2O)n1` [TAD, adenosine 5'-(trihydrogen diphosphate) 5'→5'-ester with 4-carboxamide-2-β-D-ribofuranosylthiazole], the Ki in assay [1] turned out to be 3.4 µM. The IC50 in assay [2] (P388, chemically synthesized TAD) was 3.5 µM; in assay [2] (P388, enzymatically (biologically) synthesized TAD) it was 2.5 µM. For the same molecule, in assay [3], the Antitumor activity entry was “active when administered as such; also recorded: superior to that of its progenitor”.

A word on the Ki: it is a dissociation constant, usually derived from enzyme kinetics or from competition with a known ligand.
